# From article PMC11480411, “Mucosal sugars delineate pyrazine vs pyrazinone autoinducer signaling in Klebsiella oxytoca” (Nature Communications, 2024)
# Experiments:
# Assay in all cases: PRESTO-Tango GPCR screen
# Format in all cases: cell-based
# Conditions in all cases: 100 µM
# [1] = molecular target: T1, ADORA2B (Homo sapiens, UniProt P29275)
# T1 construct: purchased PRESTO-Tango GPCR kit (Roth lab / Addgene)
# Description: (§1) The PRESTO-Tango analyses were performed as previously published. Briefly, HTLA cells, a HEK293 cell line that stably expresses β-arrestin-TEV and tTA-Luciferase (a kind gift from Gilad Barnea, Brown University), were plated in 96-well tissue culture plates (Eppendorf) in DMEM containing 10% FBS and 1% Penicillin/Streptomycin. One day after plating (after reaching approximately 90% confluence), 200 ng per well GPCR-Tango plasmids[37] in 20 μL DMEM were individually mixed with 400 ng polyethylenimine (Polysciences) in an equal volume of DMEM and incubated for 20 min at room temperature before adding the transfection mixture to the HTLA cells. 16-24 h after transfection, medium was replaced with 180 μL fresh DMEM containing 1% Penicillin/Streptomycin and 10 mM HEPES and 20 μL of 3 or 3-Homo to reach a final concentration of 100 μM. Supernatants were aspirated 20 h after stimulation and 50 μl per well of Bright-Glo solution (Promega) diluted 20-fold with PBS containing 20 mM HEPES was added into each well. After 15 min incubation at room temperature, luminescence was quantified using a Spectramax i3x microplate reader (Molecular Devices). Activation fold for each sample was calculated by dividing relative luminescence units (RLU) for each condition by RLUs from PBS control. Dose response curves of each chemical were performed in a similar way with varying the ligand concentration from 10^−4 M to 10^−15 M.
# [2] = molecular target: T2, BDKBR1 (Homo sapiens, UniProt P46663)
# T2 construct: purchased PRESTO-Tango GPCR kit (Roth lab / Addgene)
# T2 sequence (P46663 whole entry): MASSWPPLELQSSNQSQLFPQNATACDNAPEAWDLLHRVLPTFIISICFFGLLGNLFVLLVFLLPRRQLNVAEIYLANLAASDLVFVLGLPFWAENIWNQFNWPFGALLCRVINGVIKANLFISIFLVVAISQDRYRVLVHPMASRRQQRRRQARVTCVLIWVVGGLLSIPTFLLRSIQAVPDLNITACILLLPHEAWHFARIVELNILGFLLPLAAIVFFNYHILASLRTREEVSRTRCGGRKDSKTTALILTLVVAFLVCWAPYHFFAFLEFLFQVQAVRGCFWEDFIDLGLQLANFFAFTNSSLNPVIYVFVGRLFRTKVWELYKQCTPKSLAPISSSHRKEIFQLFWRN
# Description: as §1
# [3] = molecular target: T3, CCR2 (Homo sapiens, UniProt P41597)
# T3 construct: purchased PRESTO-Tango GPCR kit (Roth lab / Addgene)
# T3 sequence (P41597 whole entry): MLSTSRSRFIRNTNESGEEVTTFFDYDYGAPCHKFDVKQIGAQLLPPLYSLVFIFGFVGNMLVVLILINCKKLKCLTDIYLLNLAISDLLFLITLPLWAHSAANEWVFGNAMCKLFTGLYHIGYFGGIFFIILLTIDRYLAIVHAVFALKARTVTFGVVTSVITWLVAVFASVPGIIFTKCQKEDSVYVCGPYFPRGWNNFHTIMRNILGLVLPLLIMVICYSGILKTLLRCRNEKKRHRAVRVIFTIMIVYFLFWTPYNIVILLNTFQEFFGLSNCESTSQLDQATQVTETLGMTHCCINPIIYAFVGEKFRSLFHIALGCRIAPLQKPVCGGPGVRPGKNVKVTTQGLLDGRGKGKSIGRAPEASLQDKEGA
# Description: as §1
# [4] = molecular target: T4, CCR8 (Homo sapiens, UniProt P51685)
# T4 construct: purchased PRESTO-Tango GPCR kit (Roth lab / Addgene)
# Description: as §1
# [5] = molecular target: T5, CD97 (Homo sapiens, UniProt P48960)
# T5 construct: purchased PRESTO-Tango GPCR kit (Roth lab / Addgene)
# Description: as §1
# [6] = molecular target: T6, CHRM4 (Homo sapiens, UniProt P08173)
# T6 construct: purchased PRESTO-Tango GPCR kit (Roth lab / Addgene)
# Description: as §1
# [7] = molecular target: T7, CNR2 (Homo sapiens, UniProt P34972)
# T7 construct: purchased PRESTO-Tango GPCR kit (Roth lab / Addgene)
# Description: as §1
# [8] = molecular target: T8, CRHR2 (Homo sapiens, UniProt Q13324)
# T8 construct: purchased PRESTO-Tango GPCR kit (Roth lab / Addgene)
# T8 sequence (Q13324 whole entry): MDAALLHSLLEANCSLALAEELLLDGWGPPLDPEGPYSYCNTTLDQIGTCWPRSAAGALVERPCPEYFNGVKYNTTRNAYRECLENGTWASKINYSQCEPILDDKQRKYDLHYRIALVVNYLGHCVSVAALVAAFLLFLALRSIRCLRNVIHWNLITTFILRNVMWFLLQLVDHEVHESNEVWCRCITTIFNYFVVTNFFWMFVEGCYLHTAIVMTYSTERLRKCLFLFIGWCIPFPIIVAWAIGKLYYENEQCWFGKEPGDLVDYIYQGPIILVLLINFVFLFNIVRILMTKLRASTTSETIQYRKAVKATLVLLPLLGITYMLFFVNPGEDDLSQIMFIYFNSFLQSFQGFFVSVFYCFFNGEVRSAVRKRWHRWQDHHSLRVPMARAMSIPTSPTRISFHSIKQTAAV
# Description: as §1
# [9] = molecular target: T9, CXCR7 (Homo sapiens, UniProt P25106)
# T9 construct: purchased PRESTO-Tango GPCR kit (Roth lab / Addgene)
# Description: as §1
# [10] = molecular target: T10, DRD1 (Homo sapiens, UniProt P21728)
# T10 construct: purchased PRESTO-Tango GPCR kit (Roth lab / Addgene)
# T10 sequence (P21728 whole entry): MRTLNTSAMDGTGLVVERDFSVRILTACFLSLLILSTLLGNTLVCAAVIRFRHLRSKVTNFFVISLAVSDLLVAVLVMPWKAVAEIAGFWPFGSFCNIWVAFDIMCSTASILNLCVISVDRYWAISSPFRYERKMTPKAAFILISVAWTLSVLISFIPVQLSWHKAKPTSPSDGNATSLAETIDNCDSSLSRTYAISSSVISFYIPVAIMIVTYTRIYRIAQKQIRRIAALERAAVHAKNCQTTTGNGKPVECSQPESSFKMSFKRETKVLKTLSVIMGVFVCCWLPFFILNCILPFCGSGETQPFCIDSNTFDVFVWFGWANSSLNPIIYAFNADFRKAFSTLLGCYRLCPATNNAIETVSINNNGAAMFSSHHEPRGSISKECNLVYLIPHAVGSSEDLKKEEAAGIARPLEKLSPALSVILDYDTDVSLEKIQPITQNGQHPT
# Description: as §1
# [11] = molecular target: T11, EDNRA (Homo sapiens, UniProt P25101)
# T11 construct: purchased PRESTO-Tango GPCR kit (Roth lab / Addgene)
# Description: as §1
# [12] = molecular target: T12, FPR3 (Homo sapiens, UniProt P25089)
# T12 construct: purchased PRESTO-Tango GPCR kit (Roth lab / Addgene)
# Description: as §1
# [13] = molecular target: T13, GHRHR (Homo sapiens, UniProt Q02643)
# T13 construct: purchased PRESTO-Tango GPCR kit (Roth lab / Addgene)
# Description: as §1
# [14] = molecular target: T14, GLP1R (Homo sapiens, UniProt P43220)
# T14 construct: purchased PRESTO-Tango GPCR kit (Roth lab / Addgene)
# Description: as §1
# [15] = molecular target: T15, GPR113 (Homo sapiens, UniProt Q8IZF5)
# T15 construct: purchased PRESTO-Tango GPCR kit (Roth lab / Addgene)
# T15 sequence (Q8IZF5 26-1079): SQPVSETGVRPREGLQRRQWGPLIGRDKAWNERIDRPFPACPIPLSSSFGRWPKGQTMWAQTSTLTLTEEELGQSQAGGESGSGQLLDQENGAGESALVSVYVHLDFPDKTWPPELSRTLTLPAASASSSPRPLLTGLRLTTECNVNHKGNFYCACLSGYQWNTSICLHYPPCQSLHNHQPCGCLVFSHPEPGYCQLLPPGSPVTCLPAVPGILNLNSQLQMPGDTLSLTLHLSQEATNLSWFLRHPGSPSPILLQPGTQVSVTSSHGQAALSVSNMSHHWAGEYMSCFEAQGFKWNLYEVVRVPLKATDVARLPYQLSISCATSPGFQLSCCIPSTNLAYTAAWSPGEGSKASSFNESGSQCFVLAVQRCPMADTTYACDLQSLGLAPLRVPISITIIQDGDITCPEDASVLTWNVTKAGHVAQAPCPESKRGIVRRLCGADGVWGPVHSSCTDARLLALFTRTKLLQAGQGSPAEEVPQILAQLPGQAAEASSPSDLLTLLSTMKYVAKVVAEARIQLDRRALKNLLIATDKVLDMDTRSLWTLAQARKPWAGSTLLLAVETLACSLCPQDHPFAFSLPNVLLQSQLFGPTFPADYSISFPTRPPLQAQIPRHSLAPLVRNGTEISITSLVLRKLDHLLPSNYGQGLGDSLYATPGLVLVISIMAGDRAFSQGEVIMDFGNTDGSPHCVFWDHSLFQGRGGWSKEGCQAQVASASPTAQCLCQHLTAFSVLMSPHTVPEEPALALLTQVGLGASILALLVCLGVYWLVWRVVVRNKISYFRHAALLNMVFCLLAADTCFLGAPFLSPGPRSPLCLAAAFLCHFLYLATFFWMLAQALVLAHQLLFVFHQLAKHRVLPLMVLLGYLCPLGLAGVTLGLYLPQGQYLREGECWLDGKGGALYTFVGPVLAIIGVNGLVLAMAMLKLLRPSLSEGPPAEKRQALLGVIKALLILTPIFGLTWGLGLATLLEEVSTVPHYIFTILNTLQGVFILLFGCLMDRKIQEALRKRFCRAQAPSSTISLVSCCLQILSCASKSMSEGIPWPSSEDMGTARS
# Description: as §1
# [16] = molecular target: T16, GPR124 (Homo sapiens, UniProt Q96PE1)
# T16 construct: purchased PRESTO-Tango GPCR kit (Roth lab / Addgene)
# Description: as §1
# [17] = molecular target: T17, GPR144 (Homo sapiens, UniProt Q7Z7M1)
# T17 construct: purchased PRESTO-Tango GPCR kit (Roth lab / Addgene)
# Description: as §1
# [18] = molecular target: T18, GPR25 (Homo sapiens, UniProt O00155)
# T18 construct: purchased PRESTO-Tango GPCR kit (Roth lab / Addgene)
# Description: as §1
# [19] = molecular target: T19, GPR27 (Homo sapiens, UniProt Q9NS67)
# T19 construct: purchased PRESTO-Tango GPCR kit (Roth lab / Addgene)
# Description: as §1
# [20] = molecular target: T20, GPR34 (Homo sapiens, UniProt Q9UPC5)
# T20 construct: purchased PRESTO-Tango GPCR kit (Roth lab / Addgene)
# Description: as §1
# [21] = molecular target: T21, GPR45 (Homo sapiens, UniProt Q9Y5Y3)
# T21 construct: purchased PRESTO-Tango GPCR kit (Roth lab / Addgene)
# Description: as §1
# [22] = molecular target: T22, GPR6 (Homo sapiens, UniProt P46095)
# T22 construct: purchased PRESTO-Tango GPCR kit (Roth lab / Addgene)
# T22 sequence (P46095 whole entry): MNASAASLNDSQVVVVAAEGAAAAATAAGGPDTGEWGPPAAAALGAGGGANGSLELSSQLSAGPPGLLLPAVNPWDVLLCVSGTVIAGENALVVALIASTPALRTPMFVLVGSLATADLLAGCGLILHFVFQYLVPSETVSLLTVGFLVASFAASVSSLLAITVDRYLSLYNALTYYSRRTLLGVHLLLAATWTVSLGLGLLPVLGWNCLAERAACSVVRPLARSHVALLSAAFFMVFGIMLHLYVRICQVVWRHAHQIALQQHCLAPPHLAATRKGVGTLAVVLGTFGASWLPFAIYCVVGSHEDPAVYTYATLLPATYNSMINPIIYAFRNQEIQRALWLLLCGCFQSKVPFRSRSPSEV
# Description: as §1
# [23] = molecular target: T23, GPR63 (Homo sapiens, UniProt Q9BZJ6)
# T23 construct: purchased PRESTO-Tango GPCR kit (Roth lab / Addgene)
# T23 sequence (Q9BZJ6 whole entry): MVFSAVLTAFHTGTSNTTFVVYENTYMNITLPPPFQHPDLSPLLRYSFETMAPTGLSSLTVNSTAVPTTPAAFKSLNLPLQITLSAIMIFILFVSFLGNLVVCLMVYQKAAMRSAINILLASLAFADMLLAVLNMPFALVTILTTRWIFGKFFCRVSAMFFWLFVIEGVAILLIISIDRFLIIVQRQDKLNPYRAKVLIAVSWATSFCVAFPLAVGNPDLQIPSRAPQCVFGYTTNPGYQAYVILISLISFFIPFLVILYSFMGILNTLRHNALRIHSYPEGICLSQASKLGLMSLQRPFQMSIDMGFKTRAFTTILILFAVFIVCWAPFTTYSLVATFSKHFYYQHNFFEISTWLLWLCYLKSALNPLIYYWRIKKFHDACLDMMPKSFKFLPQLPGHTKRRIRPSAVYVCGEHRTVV
# Description: as §1
# [24] = molecular target: T24, GPR82 (Homo sapiens, UniProt Q96P67)
# T24 construct: purchased PRESTO-Tango GPCR kit (Roth lab / Addgene)
# Description: as §1
# [25] = molecular target: T25, GPR84 (Homo sapiens, UniProt Q9NQS5)
# T25 construct: purchased PRESTO-Tango GPCR kit (Roth lab / Addgene)
# T25 sequence (Q9NQS5 whole entry): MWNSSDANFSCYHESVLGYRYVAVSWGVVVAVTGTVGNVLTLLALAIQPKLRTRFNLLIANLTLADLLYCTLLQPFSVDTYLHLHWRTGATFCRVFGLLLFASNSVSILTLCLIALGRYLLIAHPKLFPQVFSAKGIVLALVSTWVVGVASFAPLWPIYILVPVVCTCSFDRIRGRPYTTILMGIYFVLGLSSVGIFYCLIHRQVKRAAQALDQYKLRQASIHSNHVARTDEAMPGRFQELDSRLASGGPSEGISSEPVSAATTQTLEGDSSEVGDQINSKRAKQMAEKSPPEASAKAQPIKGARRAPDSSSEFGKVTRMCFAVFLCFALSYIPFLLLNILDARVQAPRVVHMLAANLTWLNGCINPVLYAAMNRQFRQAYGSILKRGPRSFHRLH
# Description: as §1
# [26] = molecular target: T26, GPRC5A (Homo sapiens, UniProt Q8NFJ5)
# T26 construct: purchased PRESTO-Tango GPCR kit (Roth lab / Addgene)
# T26 sequence (Q8NFJ5 whole entry): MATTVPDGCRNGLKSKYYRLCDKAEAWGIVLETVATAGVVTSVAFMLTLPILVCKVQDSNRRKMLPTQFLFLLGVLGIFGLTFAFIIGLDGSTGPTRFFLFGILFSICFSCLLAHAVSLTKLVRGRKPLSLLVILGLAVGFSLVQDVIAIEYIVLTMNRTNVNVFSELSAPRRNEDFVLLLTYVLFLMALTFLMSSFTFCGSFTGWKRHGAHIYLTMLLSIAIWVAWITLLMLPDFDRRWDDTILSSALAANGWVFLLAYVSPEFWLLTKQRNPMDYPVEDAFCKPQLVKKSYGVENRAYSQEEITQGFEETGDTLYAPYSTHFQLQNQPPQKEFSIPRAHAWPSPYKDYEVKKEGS
# Description: as §1
# [27] = molecular target: T27, GPRC5D (Homo sapiens, UniProt Q9NZD1)
# T27 construct: purchased PRESTO-Tango GPCR kit (Roth lab / Addgene)
# T27 sequence (Q9NZD1 whole entry): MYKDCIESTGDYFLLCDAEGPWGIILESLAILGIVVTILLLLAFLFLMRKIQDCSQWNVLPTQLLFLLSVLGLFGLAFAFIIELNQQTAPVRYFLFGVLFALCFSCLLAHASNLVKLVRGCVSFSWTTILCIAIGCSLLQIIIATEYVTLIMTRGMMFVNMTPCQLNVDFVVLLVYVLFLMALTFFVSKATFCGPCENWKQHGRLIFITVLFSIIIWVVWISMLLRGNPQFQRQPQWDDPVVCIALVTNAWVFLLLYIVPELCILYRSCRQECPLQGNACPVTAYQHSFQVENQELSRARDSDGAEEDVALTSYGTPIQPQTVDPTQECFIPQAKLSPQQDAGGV
# Description: as §1
# [28] = molecular target: T28, HTR1F (Homo sapiens, UniProt P30939)
# T28 construct: purchased PRESTO-Tango GPCR kit (Roth lab / Addgene)
# Description: as §1
# [29] = molecular target: T29, HTR2A (Homo sapiens, UniProt P28223)
# T29 construct: purchased PRESTO-Tango GPCR kit (Roth lab / Addgene)
# Description: as §1
# [30] = molecular target: T30, HTR4 (Homo sapiens, UniProt Q13639)
# T30 construct: purchased PRESTO-Tango GPCR kit (Roth lab / Addgene)
# Description: as §1
# [31] = molecular target: T31, LPAR4 (Homo sapiens, UniProt Q99677)
# T31 construct: purchased PRESTO-Tango GPCR kit (Roth lab / Addgene)
# Description: as §1
# [32] = molecular target: T32, MRGPRX4 (Homo sapiens, UniProt Q96LA9)
# T32 construct: purchased PRESTO-Tango GPCR kit (Roth lab / Addgene)
# Description: as §1
# [33] = molecular target: T33, NPFF1 (Homo sapiens, UniProt Q9GZQ6)
# T33 construct: purchased PRESTO-Tango GPCR kit (Roth lab / Addgene)
# Description: as §1
# [34] = molecular target: T34, OPRK1 (Homo sapiens, UniProt P41145)
# T34 construct: purchased PRESTO-Tango GPCR kit (Roth lab / Addgene)
# T34 sequence (P41145 whole entry): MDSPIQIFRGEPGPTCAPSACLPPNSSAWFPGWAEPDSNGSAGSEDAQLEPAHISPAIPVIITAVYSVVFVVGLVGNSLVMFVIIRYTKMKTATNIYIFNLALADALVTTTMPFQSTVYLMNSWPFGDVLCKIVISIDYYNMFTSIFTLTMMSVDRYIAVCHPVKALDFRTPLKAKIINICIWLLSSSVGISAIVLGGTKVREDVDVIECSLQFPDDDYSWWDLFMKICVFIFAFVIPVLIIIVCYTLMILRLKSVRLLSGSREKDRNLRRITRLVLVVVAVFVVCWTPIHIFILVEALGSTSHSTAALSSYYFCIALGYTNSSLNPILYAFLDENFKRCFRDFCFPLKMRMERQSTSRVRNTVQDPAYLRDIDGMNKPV
# Description: as §1
# [35] = molecular target: T35, PTGER3 (Homo sapiens, UniProt P43115)
# T35 construct: purchased PRESTO-Tango GPCR kit (Roth lab / Addgene)
# Description: as §1
# [36] = molecular target: T36, TAAR2 (Homo sapiens, UniProt Q9P1P5)
# T36 construct: purchased PRESTO-Tango GPCR kit (Roth lab / Addgene)
# Description: as §1
Compound,GPCR activation (heatmap value) [1],GPCR activation (heatmap value) [2],GPCR activation (heatmap value) [3],GPCR activation (heatmap value) [4],GPCR activation (heatmap value) [5],GPCR activation (heatmap value) [6],GPCR activation (heatmap value) [7],GPCR activation (heatmap value) [8],GPCR activation (heatmap value) [9],GPCR activation (heatmap value) [10],GPCR activation (heatmap value) [11],GPCR activation (heatmap value) [12],GPCR activation (heatmap value) [13],GPCR activation (heatmap value) [14],GPCR activation (heatmap value) [15],GPCR activation (heatmap value) [16],GPCR activation (heatmap value) [17],GPCR activation (heatmap value) [18],GPCR activation (heatmap value) [19],GPCR activation (heatmap value) [20],further results
CC(C)Cc1ncc(CCCCNC(=N)N)[nH]c1=O [3-Homo],-1.632,-0.9993,-0.2415,-1.739,0.04802,0.08984,0.8114,-0.3278,-1.352,0.1434,-0.554,0.135,0.5021,0.1789,-0.1784,-0.5918,-0.2529,-0.6766,-0.5119,-0.6255,GPCR activation (heatmap value) [21]: -0.6461; GPCR activation (heatmap value) [22]: 0.1759; GPCR activation (heatmap value) [23]: 0.374; GPCR activation (heatmap value) [24]: -0.5831; GPCR activation (heatmap value) [25]: 0.1656; GPCR activation (heatmap value) [26]: 0.04883; GPCR activation (heatmap value) [27]: 0.05555; GPCR activation (heatmap value) [28]: -0.1727; GPCR activation (heatmap value) [29]: -0.1726; GPCR activation (heatmap value) [30]: -0.1279; GPCR activation (heatmap value) [31]: -0.163; GPCR activation (heatmap value) [32]: 0.4562; GPCR activation (heatmap value) [33]: -0.4803; GPCR activation (heatmap value) [34]: -0.1244; GPCR activation (heatmap value) [35]: -1.204; GPCR activation (heatmap value) [36]: 0.3187
CC(C)Cc1ncc(CCCNC(=N)N)[nH]c1=O [compound 3],0.06134,-0.1783,0.059,-0.8888,0.5,0.4059,-0.04866,-0.2766,-0.2802,0.8634,-0.2835,0.01401,0.3749,0.3036,-0.04557,0.8185,0.6653,-0.8885,0.1426,0.3024,GPCR activation (heatmap value) [21]: 0.4781; GPCR activation (heatmap value) [22]: -1.168; GPCR activation (heatmap value) [23]: 0.05297; GPCR activation (heatmap value) [24]: 0.0221; GPCR activation (heatmap value) [25]: -0.1947; GPCR activation (heatmap value) [26]: -0.3148; GPCR activation (heatmap value) [27]: -1.121; GPCR activation (heatmap value) [28]: 0.1369; GPCR activation (heatmap value) [29]: -0.2048; GPCR activation (heatmap value) [30]: -1.236; GPCR activation (heatmap value) [31]: 0.3739; GPCR activation (heatmap value) [32]: 0.07015; GPCR activation (heatmap value) [33]: 0.7283; GPCR activation (heatmap value) [34]: 0.02999; GPCR activation (heatmap value) [35]: 0.03461; GPCR activation (heatmap value) [36]: 0.1553
